Measurements published in patent US8084020B2, “Use of anti-CD1 antibodies for the modulation of immune responses” (Beth Israel Deaconess Medical Center, priority 2002, dated 2011).

Columns and labels:
adhered PBMC = test: IL-1α release from adhered PBMC; format: cell-based, human
Text: (§1) PBMC were obtained from healthy adult volunteers of both sexes on Ficoll Hypaque density gradients and cultured in complete medium consisting of RPMI 1640 and 10% FBS. THP-1 is a human monocytic leukaemia cell line. Compared to other human myeloid cell lines, such as HL-60 and U937, THP-1 cells express CD1d on their surfaces. Because of this characteristic, the THP-1 cell line provides a valuable model for studying the mechanism involved in CD1d crosslinking by measuring the IL-12 and phospho kinases in the cell. THP-1 cells was cultured in complete medium consisting of RPMI 1640 and 10% FBS.
(§2) For the activation of these target cells, an anti-CD1 antibody was bound to a plate and then incubated with the cells. In particular, […] were coated with 10 μg/ml protein G overnight at 4° C. Wells were washed with PBS and blocked with BSA at room temperature for four hours. Antibody (10 μg/ml) was added to each well for four hours at room temperature. The wells were washed again to remove the unbound antibodies, and 1.5×10^5 to 2×10^5 cells were added to each well in RPMI 1640 culture media.

antigen presenting cells = test: Induction of IL-12 production by antigen presenting cells / monocytes in vitro; format: cell-based
Text: as §1, §2
(§3) To measure the increase induction of IL-12 production by an anti-CD1 antibody, the concentrations of P40 and P70 forms of IL-12 in cultured supernatants were measured with a standard sandwich ELISA technique using combinations of monoclonal antibodies to different epitopes of each cytokine (FIGS. 4-22).

THP-1 cells = test: IL-12 p40 release from THP-1 cells (ELISA); format: cell-based, human; details: FIG. 14; with and without PMA (0.1 ng/ml); 2% serum media; IFNγ (20 ng/ml); two days
Text: as §1
as §2, with “The wells were washed again to remove the unbound antibodies, and 1.5×10^5 to 2×10^5 cells were added to each well in RPMI 1640 culture media.” left out
as §3

## lipopolysaccharide [LPS]
Adhered PBMC
  induction of IL-1 relative to 51.1 anti-CD1 antibody: more potent inducer of IL-1
Antigen presenting cells
  levels of IL-12 stimulated relative to 51.1 anti-CD1 antibody: comparable or lower levels of IL-12

## CCCCCCCCCCCCCC(=O)O[C@@H]1[C@@H](C)[C@@]2(O)[C@@H](C=C(CO)C[C@]3(O)C(=O)C(C)=C[C@@H]23)[C@@H]2C(C)(C)[C@]12OC(C)=O [PMA]
THP-1 cells
  effect of PMA on IL-12 p40 released from THP-1 cells: no significant differences

## IFNγ: cytokine
Antigen presenting cells
  effect of cytokine on anti-CD1 antibody enhanced production of IL-12: increased the ability of anti-CD1 antibodies to enhance production of IL-12

B1: IL-4: cytokine (protein, UniProt P05112 25-153, looked up)
Interleukin-4: HKCDITLQEIIKTLNSLTEQKTLCTELTVTDIFAASKNTTEKETFCRAATVLRQFYSHHEKDTRCLGATAQQFHRHKQLIRFLKRLDRNLWGLAGLNSCPVKEANQSTLENFLERLKTIMREKYSKCSS
Antigen presenting cells
  effect of cytokine on anti-CD1 antibody enhanced production of IL-12: increased the ability of anti-CD1 antibodies to enhance production of IL-12
